In patent US20080120733A1, “Rnai-Based Method for Selecting Transfected Eukaryotic Cells” (GBF-GESELLSCHAFT FUR BIOTECHNOLOGISCHE FORSCHUNG, priority 2004, published 2008):

Tests used:
APRT = assay: Effect of selection media on wild type, APRT-RNAi and APRT knock out cells (survival / cell death); format: cell-based; settings: for Effect of selection medium on cells: RNAi: cells expressing RNAi-constructs directed against APRT; for Effect of selection medium on cells: knock out: cells with APRT inactivated on the chromosomal level; for Effect of selection medium on cells: wild type: gene APRT; as to all read-outs here: key: Survival of the cells in the respective selective conditions is marked +; cell death in the respective selective condition is marked −
thymidine kinase = assay: Effect of selection media on wild type, thymidine kinase-RNAi and thymidine kinase knock out cells (survival / cell death); format: cell-based; settings: for Effect of selection medium on cells: RNAi: cells expressing RNAi-constructs directed against thymidine kinase; for Effect of selection medium on cells: knock out: cells with thymidine kinase inactivated on the chromosomal level; for Effect of selection medium on cells: wild type: gene thymidine kinase; as to all read-outs here: key: Survival of the cells in the respective selective conditions is marked +; cell death in the respective selective condition is marked −
HPRT = assay: Effect of selection media on wild type, HPRT-RNAi and HPRT knock out cells (survival / cell death); format: cell-based; settings: for Effect of selection medium on cells: RNAi: cells expressing RNAi-constructs directed against HPRT; for Effect of selection medium on cells: knock out: cells with HPRT inactivated on the chromosomal level; for Effect of selection medium on cells: wild type: gene HPRT

CN(Cc1cnc2nc(N)nc(N)c2n1)c1ccc(C(=O)N[C@@H](CCC(=O)O)C(=O)O)cc1 [methotrexate]
Effect of selection medium on cells: RNAi (DHFR; cells expressing RNAi-constructs directed against DHFR): − | Effect of selection medium on cells: knock out (DHFR; cells with DHFR inactivated on the chromosomal level): − | Effect of selection medium on cells: wild type (DHFR; wild type cells, gene DHFR): +

Nc1nc(F)nc2nc[nH]c12 [2-fluoroadenine]
Effect of selection medium on cells: RNAi (APRT): + | Effect of selection medium on cells: knock out (APRT): + | Effect of selection medium on cells: wild type (APRT): −

O=c1[nH]c(=O)n([C@H]2C[C@H](O)[C@@H](CO)O2)cc1Br [bromodesoxyuridine]
Effect of selection medium on cells: RNAi (thymidine kinase): + | Effect of selection medium on cells: knock out (thymidine kinase): + | Effect of selection medium on cells: wild type (thymidine kinase): −

Nc1nc2c(nnn2[C@@H]2O[C@H](CO)[C@@H](O)[C@H]2O)c(=O)[nH]1 [8-azaguanosine]
Effect of selection medium on cells: RNAi (HPRT): + | Effect of selection medium on cells: knock out (HPRT): + | Effect of selection medium on cells: wild type (HPRT): −

Nc1ncnc2nn[nH]c12 [8-azaadenine]
Effect of selection medium on cells: RNAi (APRT): + | Effect of selection medium on cells: knock out (APRT): + | Effect of selection medium on cells: wild type (APRT): −

Nc1nc2c(ncn2[C@@H]2O[C@H](CO)[C@@H](O)[C@H]2O)c(=S)[nH]1 [6-thioguanosine]
Effect of selection medium on cells: RNAi (HPRT): + | Effect of selection medium on cells: knock out (HPRT): + | Effect of selection medium on cells: wild type (HPRT): −

Nc1nc(N)c2nc[nH]c2n1 [diaminopurine]
Effect of selection medium on cells: RNAi (APRT): + | Effect of selection medium on cells: knock out (APRT): + | Effect of selection medium on cells: wild type (APRT): −

O=c1[nH]c(=O)n([C@H]2C[C@H](O)[C@@H](CO)O2)cc1C(F)(F)F [trifuorothymidine]
Effect of selection medium on cells: RNAi (thymidine kinase): + | Effect of selection medium on cells: knock out (thymidine kinase): + | Effect of selection medium on cells: wild type (thymidine kinase): −
